Results published in patent publication US20240277658A1, “NLRP3 ACTIVATORS FOR USE IN THE TREATMENT OF INFECTIOUS DISEASES OR CANCER BY ACTIVATING NLRP3 INFLAMMASOME” (ALBERT-LUDWIGS-UNIVERSITÄT FREIBURG, priority 2020, published 2024).
Values joined by “and” are separate entries in the source; they are usually repeats but may differ in a detail not shown here. Equal entries are not always repeated. Where two headings read alike, the source gives them in different places.

Columns and labels:
BMDCs = experiment: LDH release (lytic cell death, pyroptosis) from LPS-primed BMDCs; format: cell-based, mouse; conditions: for Average (% positive control): LDH release; for cytotoxicity at 50 µM / cytotoxicity at 25 µM / cytotoxicity at 100 µM: Mus musculus, BMDC
Description: (§1) This was tested in cell culture in several different in vitro assays classically used to investigate inflammasome activation. These include measuring inflammasome-dependent lytic cell death (pyroptosis) by detecting release of the cytosolic enzyme lactate dehydrogenase (LDH) using a commercial colorimetric assay and release of proinflammatory cytokines like IL-1β by enzyme-linked immunosorbent assay (ELISA), analyzing cleavage and activation of caspase-1 and IL-1β by immunoblotting and immunofluorescence imaging of ASC speck formation. Lytic cell death was determined via LDH release. Assay results for compounds are illustrated in the Tables below, wherein the concentration of the compounds tested had been 50 μM or as indicated in the table, and the concentration of the known activators has been tested with 5 μM of nigericin, 100 μM of each R837 and CL097. For classification of the activity of a given molecule, release of IL-1β was quantified as % of IL-1% of a respective control activator used for the experiment (highlighted in tables with bold letters). The compounds listes in Table 1 were classified into 4 groups depending on their ability to induce the NLRP3 inflammasome activation, assessed by % IL-1β release as compared to the positive control.
(§2) Mouse bone marrow-derived dendritic cells (BMDCs) were isolated from femurs and tibias previously described (Gross, Olaf, 2012, “Measuring the inflammasome”, Methods in molecular biology, Clifton, N.J., 844, pp. 199-222.). In brief, tibias and femurs were carefully removed and put to sterile 70% ethanol for 1 minute. Using a 22-G needle attached to a 20 ml-syringe filled with sterile flushing medium, the bone marrow was pressed through the mesh of a […] cell strainer. The cells were spun down by centrifugation at 400×g, 4° C. for 5 minutes and red blood cells lysed by resuspension and incubation for 5 minutes at room temperature in RBC lysis buffer. 9 ml of flushing medium were added and cells were again spun down by centrifugation at 400×g, 4° C. for 5 minutes. Cells were then resuspended in BMDC medium (RPMI, 10% fetal bovine serum, 1% penicillin-streptomycin100 U/ml, 20 ng/ml recombinant murine GM-CSF), counted and plated at a density of 0.5×10^6 cells ml^−1 in 10 ml medium and incubated at 37° C., 5% CO2 in a humidified incubator. After 2 days, 10 ml of fresh medium were added to the cells and after 4 days, the medium was fully exchanged to 20 ml of fresh medium. The cells were allowed to differentiate for 6 to 8 days before usage.
(§3) For canonical inflammasome activation BMDCs after 7-9 days of differentiation were harvested and counted with a Neubauer Chamber (Hecht Assistant) and the concentration was set to 1 Mio cells ml^−1. 100 μl cell suspension per well were seeded in 96-well plates. The cells were primed with 50 ng ml^−1 E. coli K12 ultra-pure LPS for 3 hours and subsequently treated with canonical inflammasome activators or experimental compounds for 3 hours if not indicated differently (incubation time FIG. 4D, 5, 7, 8, 11, 13-18: 3 h, FIG. 12: 4 h). Concentrations of the stimuli were as follows if not indicated differently: 5 μM nigericin, 100 μM imiquimod (also known as R837), 100 μM CL097, 100 μM R848, […] poly(dA:dT), 300 μg ml^−1 MSU. If an inhibitor was used before stimuli treatment, the inhibitor was added after 2.5 hours of priming and it was incubated for 30 minutes before inflammasome activation. Inhibitors were used as follows: 3 μM MCC950, 45 mM KCl, 30 μM ebselen (2-Phenyl-1,2-benzoselenazol-3-one), 5 μM cytochalasin D (see FIGS. 8, 11, 12 and 17).
(§4) All inflammasome stimulations were performed in three technical replicates for each condition. […]

NLRP3 inflammasome = molecular target: T1, NLRP3 inflammasome (Mus musculus, UniProt Q8R4B8); experiment: IL-1β release from LPS-primed BMDCs (ELISA) as readout of NLRP3 inflammasome activation; format: cell-based
T1 construct: endogenous in cells; host or cells: primary mouse bone marrow-derived dendritic cells (BMDCs), LPS-primed
Description: as §1, §2, §3, §4

[1] = compound 50 μM, positive control nigericin 5 μM
[2] = compound 50 μM, LPS-primed BMDCs, read-out: Average LDH release (% of max.)
[3] = single replicates, compound 50 μM, LPS-primed BMDCs, read-out: LDH release (% of max.)
[4] = IL-1β release, compound 50 μM, positive control nigericin 5 μM
[5] = compound 50 μM, LPS-primed BMDCs
[6] = single replicates, compound 50 μM, LPS-primed BMDCs

T1 sequence (Q8R4B8 whole entry): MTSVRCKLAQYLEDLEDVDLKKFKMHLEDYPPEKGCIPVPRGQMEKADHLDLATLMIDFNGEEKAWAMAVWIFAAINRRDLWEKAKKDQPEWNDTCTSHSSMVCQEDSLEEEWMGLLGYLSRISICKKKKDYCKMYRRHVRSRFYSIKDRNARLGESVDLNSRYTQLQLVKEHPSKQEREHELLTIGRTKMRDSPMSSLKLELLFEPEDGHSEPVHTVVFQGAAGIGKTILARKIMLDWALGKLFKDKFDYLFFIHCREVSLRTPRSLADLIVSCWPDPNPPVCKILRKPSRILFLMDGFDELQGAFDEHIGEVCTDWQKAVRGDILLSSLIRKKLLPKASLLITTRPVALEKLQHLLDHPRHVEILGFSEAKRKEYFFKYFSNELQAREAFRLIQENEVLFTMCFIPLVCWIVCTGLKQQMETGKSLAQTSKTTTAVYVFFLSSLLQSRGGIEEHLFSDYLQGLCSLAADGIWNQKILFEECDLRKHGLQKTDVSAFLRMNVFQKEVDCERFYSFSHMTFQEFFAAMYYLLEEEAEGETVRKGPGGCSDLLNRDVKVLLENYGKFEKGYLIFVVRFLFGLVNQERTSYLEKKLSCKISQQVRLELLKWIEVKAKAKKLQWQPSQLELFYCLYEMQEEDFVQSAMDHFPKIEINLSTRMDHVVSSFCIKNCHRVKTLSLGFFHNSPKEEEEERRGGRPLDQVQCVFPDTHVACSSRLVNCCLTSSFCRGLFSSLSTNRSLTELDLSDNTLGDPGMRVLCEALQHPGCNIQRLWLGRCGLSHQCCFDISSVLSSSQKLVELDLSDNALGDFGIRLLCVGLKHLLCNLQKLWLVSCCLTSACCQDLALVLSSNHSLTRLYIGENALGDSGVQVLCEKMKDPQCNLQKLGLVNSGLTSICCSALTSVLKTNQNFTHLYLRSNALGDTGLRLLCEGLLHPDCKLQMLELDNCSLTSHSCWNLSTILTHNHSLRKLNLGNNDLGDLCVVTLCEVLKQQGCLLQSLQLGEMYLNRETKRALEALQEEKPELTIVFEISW

Average (% positive control) (NLRP3 inflammasome; [4])	Average IL-1β (NLRP3 inflammasome; [5])	SMILES	Average (% positive control) (BMDCs; [1])	cytotoxicity at 50 µM (BMDCs; [2])	cytotoxicity at 50 µM (BMDCs; [3])	IL-1β (NLRP3 inflammasome; [6])	further results
1.014 % positive control	0.073 ng/mL	O=C(Nc1ccccc1)Nc1ccc(NC(=O)c2ccco2)cc1 [L01.064, N-{4-[(phenylcarbamo-yl)amino]phenyl}furan-2-carboxamide]	11.958 % positive control	8.75%	8.96%	0.065 ng/mL and 0.054 ng/mL and 0.100 ng/mL	–
2.698 % positive control	0.193 ng/mL	O=C1CN(c2ccccc2)C(=O)N1Cc1nc(-c2ccco2)no1 [L01.033, 3-{[3-(furan-2-yl)-1,2,4-oxadiazol-5-yl]methyl}-1-phenylimidazolidine-2,4-dione]	11.108 % positive control	8.13%	8%	0.197 ng/ml (2×) and 0.186 ng/ml	–
0.973 % positive control	0.070 ng/mL	O=C(Nc1ccccc1)Nc1cccc([N+](=O)[O-])c1 [L01.108, 3-(3-nitrophenyl)-1-phenylurea]	14.362 % positive control	10.5%	10.9%	0.076 ng/mL and 0.061 ng/mL and 0.072 ng/mL	–
–	–	O=C(NCc1ccccc1)Nc1ccc2ncccc2c1 [EN11-16, 1-benzyl-3-(quinolin-6-yl)urea]	–	–	–	–	Average (% positive control) (BMDCs; 25 μM, positive control EN22 25 μM): 15.222 % positive control; Average (% positive control) (BMDCs; 50 μM, positive control EN22 25 μM): 16.245 % positive control; Average (% positive control) (BMDCs; 100 μM, positive control EN22 25 μM): 24.607 % positive control; cytotoxicity at 25 µM (BMDCs; 25 μM, EN11 series table, read-out: Average LDH release (% of max.)): 7.74%; cytotoxicity at 25 µM (BMDCs; 25 μM, individual replicate values, EN11 series table, read-out: LDH release (% of max.)): 7.87%; cytotoxicity at 50 µM (BMDCs; 50 μM, EN11 series table, read-out: Average LDH release (% of max.)): 8.26%; cytotoxicity at 50 µM (BMDCs; 50 μM, individual replicate values, EN11 series table, read-out: LDH release (% of max.)): 8.33%; cytotoxicity at 100 µM (BMDCs; 100 μM, individual replicate values, read-out: LDH release (% of max.)): 14.2%; cytotoxicity at 100 µM (BMDCs; 100 μM, read-out: Average LDH release (% of max.)): 12.5%; Average IL-1β (NLRP3 inflammasome; 25 μM, EN11 series table): 0.008 ng/mL; IL-1β (NLRP3 inflammasome; 25 μM, individual replicate values, EN11 series table): 0.010 ng/mL and 0.014 ng/mL and 0.000 ng/mL; Average IL-1β (NLRP3 inflammasome; 50 μM, EN11 series table): 0.060 ng/mL; IL-1β (NLRP3 inflammasome; 50 μM, individual replicate values, EN11 series table): 0.068 ng/mL and 0.054 ng/mL and 0.058 ng/mL; Average IL-1β (NLRP3 inflammasome; 100 μM): 0.325 ng/mL; IL-1β (NLRP3 inflammasome; 100 μM, individual replicate values): 0.334 ng/mL and 0.324 ng/mL and 0.315 ng/mL; Average (% positive control) (NLRP3 inflammasome; IL-1β, 25 μM, positive control EN22 25 μM): 0.555 % positive control; Average (% positive control) (NLRP3 inflammasome; IL-1β, 50 μM, positive control EN22 25 μM): 4.074 % positive control; Average (% positive control) (NLRP3 inflammasome; IL-1β, 100 μM, positive control EN22 25 μM): 22.016 % positive control
1.180 % positive control	0.085 ng/mL	CC(C)Oc1ccccc1NC(=O)NCc1nc(C2CC2)no1 [L01.083, 3-[(3-cyclopropyl-1,2,4-oxadiazol-5-yl)-methyl]-1-[2-(propan-2-yloxy)phenyl]urea]	8.649 % positive control	6.33%	6.8%	0.080 ng/mL and 0.077 ng/mL and 0.097 ng/mL	–
4.189 % positive control	0.300 ng/mL	O=C1CN(c2ccccc2)C(=O)N1Cc1nc(-c2ccc(Cl)cc2)no1 [L01.049, 3-{[3-(4-chlorophenyl)-1,2,4-oxadiazol-5-yl]-methyl}-1-phenylimid-azolidine-2,4-dione]	16.093 % positive control	11.8%	12.6%	0.330 ng/mL and 0.251 ng/mL and 0.319 ng/mL	–
0.866 % positive control	0.062 ng/mL	Cc1ccc(NC(=O)NCc2nc(Cc3ccccc3)no2)cc1 [L01.088, 3-[(3-benzyl-1,2,4-oxadiazol-5-yl)methyl]-1-(4-methylphenyl)urea]	7.174 % positive control	5.25%	5.68%	0.069 ng/mL and 0.058 ng/mL and 0.059 ng/mL	–
1.093 % positive control	0.078 ng/mL	O=C(NCc1nc(C2CC2)no1)Nc1cccc(F)c1 [L01.081, 3-[(3-cyclopropyl-1,2,4-oxadiazol-5-yl)methyl]-1-(3-fluorophenyl)urea]	8.656 % positive control	6.33%	6.87%	0.075 ng/mL and 0.072 ng/mL and 0.088 ng/mL	–
1.765 % positive control	0.126 ng/mL	CC(C)C(NC(=O)Nc1ccc(Cl)cc1)c1nc(-c2ccccc2)no1 (stereo not drawn) [L01.097, 1-(4-chlorophenyl)-3-[2-methyl-1-(3-phenyl-1,2,4-oxadiazol-5-yl)-propyl]urea]	51.271 % positive control	37.5%	39.5%	0.121 ng/mL and 0.143 ng/mL and 0.116 ng/mL	–
23.826 % positive control	1.708 ng/mL	Cc1ccc(NC(=O)Nc2ccccc2)cc1NC(=O)NC(C)C [L01.041, 3-(4-methyl-3-[(propan-2-yl)carbamoylamino}-phenyl)-1-phenylurea]	32.832 % positive control	24%	24.4%	1.508 ng/mL and 1.847 ng/mL and 1.769 ng/mL	–
0.932 % positive control	0.067 ng/mL	O=C(Nc1cccc(S(=O)(=O)C2CCCC2)c1)N1CCCCC1c1nc(-c2ccccc2)no1 (stereo not drawn) [L01.099, N-[3-(cyclopentane-sulfonyl)phenyl]-2-(3-phenyl-1,2,4-oxadiazol-5-yl)piperidine-1-carboxamide]	13.410 % positive control	9.81%	10.6%	0.074 ng/mL and 0.067 ng/mL and 0.059 ng/mL	–
1.677 % positive control	0.120 ng/mL	CCOc1ccc(NC(=O)NCc2nc(-c3cccc(OC)c3)no2)cc1OCC [L01.013, 1-(3,4-diethoxyphenyl)-3-{[3-(3-methoxyphen-yl)-1,2,4-oxadiazol-5-yl]methyl}urea]	10.303 % positive control	7.54%	8.75%	0.118 ng/mL and 0.126 ng/mL and 0.117 ng/mL	–
3.256 % positive control	0.233 ng/mL	O=C(Nc1ccccc1)Nc1cccc(Br)c1 [L01.020, 3-(3-bromophenyl)-1-phenylurea]	14.712 % positive control	10.8%	11.6%	0.236 ng/mL and 0.231 ng/mL and 0.233 ng/mL	–
